A melting point compilation (Tetko et al.; mined from patent text by program, amines drawn as free bases though some values may be those of a salt)

Row | melting point | SMILES
1 | 70 to 71 °C | Cc1cccc(CC(=O)O)c1OCCCc1cc(OC(C)C)nn1Cc1ccc(Cl)cc1Cl
2 | 133 to 135 °C | Clc1ccc2cccc(-c3cccc4ccccc34)c2n1
3 | 120 to 123 °C | CCOC(=O)c1cc2ccnc(N(Cc3ccccc3)Cc3ccccc3)c2[nH]1
4 | 159 to 161 °C | O=C(O)c1cccc2ccc(-c3ccccc3)nc12
5 | 232 to 233 °C | C=C(Nc1nc(-c2ccccc2)c(-c2nc3ccccc3c(=O)n2-c2ccc(C(C)=O)cc2)s1)c1ccco1
6 | 103 to 104 °C | N#Cc1ccc(CC2CC3CCC(C2)N3c2ccccc2)c2ccccc12 (stereo unspecified)
7 | 140 to 145 °C | O=C(C1=C(c2ccccc2)c2ccccc2S1=O)c1ccc(O)cc1 (stereo unspecified)
8 | 134 to 138 °C | COCCOc1ccccc1S(=O)(=O)NC(=O)Nc1nc(C)nc(OC)n1
9 | 172 °C | CC(=O)N1CCN(CCOC2c3ccccc3C(=O)N2c2ccc3ccc(Cl)nc3n2)CC1 (stereo unspecified)
10 | 124 to 125 °C | COC(=O)Cc1ccc(Sc2ccccc2C(=O)N(C)C)c([N+](=O)[O-])c1
11 | 50 to 53 °C | C#CCN(c1nnc(C)c2ccccc12)c1nc2ccccc2n1-c1ccccc1
12 | 154 to 162 °C | Cn1ncnc1COc1nn2c(-c3ccccc3F)nnc2cc1C1(F)CCC1
13 | 113 to 114 °C | CC(C#CCCc1ccccc1)N(O)C(N)=O (stereo unspecified)
14 | 112 to 113 °C | O=C1CC(CCCl)c2ccccc2N1 (stereo unspecified)
15 | 110 °C | OCCc1c(-c2ccccc2)n2nnnc2n2ncnc12
16 | 242 to 244 °C | Cc1cc(N2CCc3ccccc32)nc(N)n1
17 | 95 to 97 °C | CSc1nccn1N=Cc1ccccc1
18 | 152 to 154 °C | O=C(O)C(Sc1nc2ccccc2s1)c1ccccc1 (stereo unspecified)
19 | 158 to 161 °C | NC(=O)c1cc(NCc2ccccc2Cl)c([N+](=O)[O-])cc1[N+](=O)[O-]

More lines, now with the values behind:

Row | SMILES | melting point
20 | O=C(O)C1CCC2C(=O)OC(=O)C2C1 (stereo unspecified) | 250 °C
21 | O=Cc1cc(Br)ccc1C(=O)O | 202 °C
22 | COc1ccc(-c2ccc(-c3nc(N)nc(N)n3)cc2)cc1 | > 260 °C
23 | CN1C(C)(C)CC(OC(=O)N=NC(=O)OC2CC(C)(C)N(C)C(C)(C)C2)CC1(C)C | 135 to 137 °C
24 | COc1ccc(S(=O)(=O)C(Cl)(Cl)S(=O)(=O)N(C)C)cc1 | 145 to 147 °C
25 | COc1nc(C(F)(F)C(F)(F)F)c(F)c(=O)n1-c1cc(C(=O)OC(C)C)c(Cl)cc1F | 75 to 77 °C
26 | NC(=O)C(c1ccccc1)(c1ccccc1)[C@@H]1CCNC1 | 128 to 132 °C
27 | C#Cc1cccc(Nc2ncnc3ccc(S(=O)(=O)n4ccc(C=CC(=O)NOC5CCCCO5)c4)cc23)c1 (stereo unspecified) | 152 to 155 °C
28 | Cc1ccc(S(=O)(=O)OCC2Cc3c(C)c(Cl)cc(C(C)C)c3O2)cc1 (stereo unspecified) | 103 to 105 °C
29 | CCN(CC)CCNC(=O)c1c2cc(I)ccc2nc2ccc(I)cc12 | 209 to 211 °C
30 | CC(C)c1cccc(C(C)C)c1N1C(=O)c2cccc3c(Br)ccc(c23)C1=O | 277 °C
31 | COC(=O)CCc1cc2nc(Cl)ccc2n1S(=O)(=O)c1cccc(OC(F)(F)F)c1 | 102 °C
32 | CN1CCOc2ccc(N)cc2C1=O | 165 °C
33 | CC(=O)Nc1ccc2c(c1)OCO2 | 138 to 139 °C
34 | N#Cc1c(Cl)cc(Cl)c(CCC(=O)O)c1Cl | 127 to 129 °C
35 | Cc1cc(C)nc(NC(=O)NS(=O)(=O)c2ccsc2C(=O)O)n1 | 127 °C
36 | COC(=O)CS(=O)(=O)c1ccccc1C(=O)OC | 102 to 103 °C
37 | CCOC(=O)NC(=NC(=O)c1nc(Cl)c(N)nc1N)NC(=O)OCC | 213 °C
38 | COc1ccc(C2C3=C(COC3=O)Nc3onc(-c4ccc(Cl)cc4)c32)cc1O (stereo unspecified) | 245 to 246 °C
39 | C=C(C)COc1c(C)c(CCC=O)c2c(c1C)CC(C)(C)O2 | 55.5 to 56 °C
40 | COc1ccc2c(c1)c(C)cc(=O)n2-c1ccc(Cl)cc1 | 234 to 235 °C
41 | NC(P(=O)(O)O)P(=O)(O)O | 255 to 265 °C
